In brackets after ≈: the same amount, converted by molar mass. Numbered stars: 1 amine (or outer) side, 2 acyl side, 3 side chain; on linkers, the order of the positions; unused ones are H or OH. Square brackets hold non-standard residues; d marks the D form. Peptide text beside a SMILES is read from it. X1 = C[C@H]1CCN([*:1])[C@@H]1C(=O)[*:2]; NMeF = CN[C@@H](Cc1ccccc1)C(=O)O; Hica(2S) = CC(C)C[C@H](O)C(=O)O; NMeL = CN[C@@H](CC(C)C)C(=O)O; NMeV = CN[C@H](C(=O)O)C(C)C; βAla = NCCC(=O)O
Tests used:
Artemia salina = assay: Toxicity in Artemia salina at 100 ug/ml; assay type: organism-based; conditions: in vivo
Escherichia coli = assay: Antibacterial activity against Escherichia coli after 24 hrs; assay type: functional

MIC (Escherichia coli) | SMILES | Activity (Artemia salina)
– | CC(C)C[C@@H]1OC(=O)CCNC(=O)[C@H](Cc2ccccc2)N(C)C(=O)[C@H](C(C)C)N(C)C(=O)[C@H](Cc2ccccc2)NC(=O)[C@@H]2CCCN2C1=O (cyclo(F[NMeV][NMeF][βAla][Hica(2S)]P)) | Non-toxic
64 µg/mL (≈ 93.3 µM) | CC(C)C[C@@H]1OC(=O)CCNC(=O)[C@H](CC(C)C)N(C)C(=O)[C@H](C(C)C)N(C)C(=O)[C@H](Cc2ccc(O)cc2)NC(=O)[C@@H]2CCCN2C1=O (cyclo([Hica(2S)]PY[NMeV][NMeL][βAla])) | Non-toxic
– | CC(C)C[C@@H]1OC(=O)CCNC(=O)[C@H](Cc2ccccc2)N(C)C(=O)[C@H](C(C)C)N(C)C(=O)[C@H](Cc2ccccc2)NC(=O)[C@@H]2[C@@H](C)CCN2C1=O (cyclo(F[NMeV][NMeF][βAla][Hica(2S)][X1])) | Non-toxic
8 µg/mL (≈ 12.2 µM) | CC(C)C[C@@H]1NC(=O)[C@H](C(C)C)N(C)C(=O)[C@H](Cc2ccccc2)NC(=O)[C@@H]2CCCN2C(=O)[C@H](CC(C)C)OC(=O)CCNC1=O (cyclo(F[NMeV]L[βAla][Hica(2S)]P)) | Non-toxic
64 µg/mL (≈ 95.3 µM) | CC(C)C[C@@H]1NC(=O)[C@H](C(C)C)N(C)C(=O)[C@H](Cc2ccc(O)cc2)NC(=O)[C@@H]2CCCN2C(=O)[C@H](CC(C)C)OC(=O)CCNC1=O (cyclo(L[βAla][Hica(2S)]PY[NMeV])) | Non-toxic

SMILES | MIC (Escherichia coli) | Activity (Artemia salina)
O=C(N[C@H](CO)[C@H](O)c1ccc([N+](=O)[O-])cc1)C(Cl)Cl [CHLORAMPHENICOL] | 4 µg/mL (≈ 12.4 µM) | –
CC(C)C[C@@H]1OC(=O)CCNC(=O)[C@H](C(C)C)N(C)C(=O)[C@H](C(C)C)N(C)C(=O)[C@H](Cc2ccccc2)NC(=O)[C@@H]2CCCN2C1=O (cyclo(F[NMeV][NMeV][βAla][Hica(2S)]P)) | 16 µg/mL (≈ 24.4 µM) | Non-toxic
